Experiments:
Assay type in all cases: cell-based
Microsporum canis = experiment: Antifungal activity in vitro, resazurin growth inhibition: Microsporum canis (B68128)
Method: (§1) The standard susceptibility screen is performed in 96-well plates (U-bottom, Greiner Bio-One). Serial dilutions (2-fold or 4-fold) of 20 mM compound stock solutions are made in 100% DMSO, followed by an intermediate dilution step in water. These serial dilutions (10 μl) are then spotted onto test-plates that can be stored in the dark at 4° C. for a maximum period of 2 weeks. An adequate broad dose-range is included with 64 μM as the highest in-test concentration. The culture medium RPMI-1640 is supplemented with L-glutamine, 2% glucose and buffered with 3-(N-morpholino)-propanesulfonic acid (MOPS) at pH 7.0±0.1.
(§2) The different fungal species/isolates (Table 3a) are cryopreserved and 1/1000 diluted in medium just prior to use. A standard inoculum of 200 μl containing 10^3 colony-forming unit (cfu) is then added to each well. A positive control (100% growth=fungal culture without antifungal) and a negative control (0% growth ═RPMI-MOPS medium) are included on each plate. Optimal incubation time and temperature are dependent on the fungal species and vary from 24 h for yeasts (37° C.) to one week or more for dermatophytes (27° C.). Inhibition of fungal growth is measured after adding 10 μl of 0.005% (w/v) resazurin (Sigma Aldrich) to each well, based on the principle that living cells convert the non-fluorescent blue resazurin into the pink and fluorescent resorufin, allowing fluorimetric reading (λex 550 nm and λem 590 nm) after an additional incubation period (‘resa’ time mentioned in Table 3a).

[1] = system: Trichophyton mentagrophytes; experiment: Antifungal activity in vitro, resazurin growth inhibition: Trichophyton mentagrophytes (B70554)
Method: as §1, §2

Trichophyton rubrum = experiment: Antifungal activity in vitro, resazurin growth inhibition: Trichophyton rubrum (B68183)
Method: as §1, §2

Sporothrix schenkii = experiment: Antifungal activity in vitro, resazurin growth inhibition: Sporothrix schenkii (B62482)
Method: as §1, §2

Aspergillus fumigatus = experiment: Antifungal activity in vitro, resazurin growth inhibition: Aspergillus fumigatus (B42928)
Method: as §1, §2

Candida parapsilosis = experiment: Antifungal activity in vitro, resazurin growth inhibition: Candida parapsilosis (B66126)
Method: as §1, §2

Cryptococcus neoformans = experiment: Antifungal activity in vitro, resazurin growth inhibition: Cryptococcus neoformans (B66663)
Method: as §1, §2

Row | Structure (SMILES) | Inf. B: Microsporum canis B68128, pIC50 (Microsporum canis) | Inf. G: Trichophyton mentagrophytes B70554, pIC50 [1] | Inf. C: Trichophyton rubrum B68183, pIC50 (Trichophyton rubrum) | Inf. A: Sporothrix schenkii B62482, pIC50 (Sporothrix schenkii) | Inf. E: Aspergillus fumigatus B42928, pIC50 (Aspergillus fumigatus) | Inf. D: Candida parapsilosis B66126, pIC50 (Candida parapsilosis) | Inf. F: Cryptococcus neoformans B66663, pIC50 (Cryptococcus neoformans)
1 | COc1cccc2cc(C3=NCc4ccccc4-n4cccc43)oc12 [Compound 157] | 5.79 | 5.96 | 6.58 | <4.49 | <4.49 | 4.61 | <4.49
2 | CCc1ccc(C2=NCc3c(Cl)cc(Cl)cc3-n3cccc32)nc1 [Compound 73] | 5.10 | <4.49 | 6.09 | <4.49 | <4.49 | <4.49 | <4.49
3 | Clc1cccc2c1CN=C(c1ccc3c(Cl)coc3c1)c1cccn1-2 [Compound 156] | <4.19 | 4.49 | <4.19 | <4.19 | 4.48 | <4.19 | 4.51
4 | Clc1cccc2c1CN=C(c1nc3ccccc3s1)c1cccn1-2 [Compound 180] | 4.40 | 4.39 | 6.03 | <4.19 | <4.19 | <4.19 | <4.19
5 | Cc1cccc2c1CNC(c1ccc(C(F)(F)F)nc1)c1cccn1-2.Cl (racemic) [Compound 18] | 5.05 | 4.62 | 5.52 | <4.19 | <4.19 | <4.19 | <4.19
6 | Cc1ncc(C2NCc3c(Cl)cccc3-n3cccc32)cn1.Cl (racemic) [Compound 25] | 4.43 | <4.19 | 4.19 | <4.19 | <4.19 | <4.19 | <4.19
7 | Cc1ccc2cc(C3=NCc4c(F)cccc4-n4cccc43)ccc2n1 [Compound 113] | <4.19 | <4.19 | 5.86 | <4.19 | <4.19 | <4.19 | <4.19
8 | Br.Clc1ccc2c(c1)-n1cccc1C(c1ccncc1)NC2 (racemic) [Compound 23] | 4.72 | 4.39 | 5.00 | <4.19 | <4.19 | <4.19 | 4.57
9 | Br.Clc1cccc2c1-n1cccc1C(c1ccncc1)NC2 (racemic) [Compound 24] | 4.57 | <4.19 | 4.74 | <4.19 | <4.19 | <4.19 | <4.19
10 | Fc1cccc2c1CN=C(c1cnc(Cl)c(Cl)c1)c1cccn1-2 [Compound 80] | 5.09 | 5.23 | 5.79 | 5.42 | 5.59 | <4.19 | <4.19
11 | COc1cccc2cc(C3=NCc4cccc(Cl)c4-n4cccc43)oc12 [Compound 143] | <4.19 | <4.19 | 6.11 | 5.49 | <4.19 | <4.19 | 5.20
12 | Clc1cccc2c1-n1cccc1C(c1ccc3scc(Cl)c3c1)=NC2 [Compound 179] | 4.80 | 4.69 | 5.03 | 4.41 | 4.49 | <4.19 | 4.67
13 | Cc1ccc2cc(C3=NCc4c(Cl)cc(Cl)cc4-n4cccc43)oc2c1 [Compound 139] | 4.46 | <4.19 | 4.40 | <4.19 | <4.19 | <4.19 | <4.19
14 | Cl.FC(F)(F)c1ccc(C2NCc3c(Cl)cc(Cl)cc3-n3cccc32)cn1 (racemic) [Compound 19] | 4.95 | 4.57 | 5.65 | <4.19 | <4.19 | <4.19 | 5.02
15 | CC(C)n1ccc(C2=NCc3cccc(Cl)c3-n3cccc32)cc1=O [Compound 71] | 5.83 | 5.78 | 5.55 | 5.42 | <4.19 | <4.19 | 5.00
16 | Fc1cc(F)c2c(c1)-n1cccc1C(c1cnc(Cl)c(Cl)c1)=NC2 [Compound 81] | <4.19 | <4.19 | <4.19 | 5.65 | 5.58 | 4.19 | <4.19
17 | CCc1cc(C2=NCc3c(Cl)cccc3-n3cccc32)on1 [Compound 63] | <4.19 | 5.58 | 5.72 | <4.19 | <4.19 | <4.19 | <4.19
18 | Cl.Fc1ccc2oc(C3NCc4c(Cl)cc(Cl)cc4-n4cccc43)cc2c1 (racemic) [Compound 49] | 4.82 | <4.19 | 5.28 | <4.80 | <4.19 | <4.19 | <4.19
19 | Cn1nc2ccc(C3=NCc4c(Cl)cccc4-n4cccc43)cc2n1 [Compound 108] | 4.98 | 5.43 | 5.99 | <4.49 | <4.49 | <4.49 | <4.49
20 | Br.Clc1cccc2c1CNC(c1ccncc1)c1cccn1-2 (racemic) [Compound 21] | 5.04 |  | 5.52 | 4.70 | <4.19 | <4.19 | 4.66
21 | Br.Clc1ccc2c(c1)CNC(c1ccncc1)c1cccn1-2 (racemic) [Compound 22] | 5.22 |  | 5.10 | <4.19 | <4.19 | <4.19 | 4.32
22 | Clc1cccc2c1CN=C(c1ccc3nc[nH]c3c1)c1cccn1-2 [Compound 205] |  | <4 | <4 | <4 | <4 | <4 | <4

— patent US9493468B2, “Antifungal 5,6-dihydro-4H-pyrrolo[1,2-a][1,4]benzo-diazepines and 6H-pyrrolo[1,2-a][1,4]benzodiazepines substituted with heterocyclic derivatives” (Janssen Pharmaceutica NV, priority 2011, dated 2016)
